Laboratory results taken from ChEMBL document CHEMBL2069212, “Identification and in vivo and in vitro characterization of long acting and melanocortin 4 receptor (MC4-R) selective α-melanocyte-stimulating hormone (α-MSH) analogues” (J Med Chem, 2012).
The source made the active and inactive calls. No cut-off for these calls is given here.

Key:
[1] = molecular target: Melanocortin receptor 3 (Homo sapiens, UniProt P41968); assay: Displacement of [125I]-NAD-alpha-MSH from human recombinant MC3 receptor expressed in BHK570 cells after 1 hr in presence of ovalbumin; format: cell-based
Chain of Melanocortin receptor 3 (P41968 whole entry): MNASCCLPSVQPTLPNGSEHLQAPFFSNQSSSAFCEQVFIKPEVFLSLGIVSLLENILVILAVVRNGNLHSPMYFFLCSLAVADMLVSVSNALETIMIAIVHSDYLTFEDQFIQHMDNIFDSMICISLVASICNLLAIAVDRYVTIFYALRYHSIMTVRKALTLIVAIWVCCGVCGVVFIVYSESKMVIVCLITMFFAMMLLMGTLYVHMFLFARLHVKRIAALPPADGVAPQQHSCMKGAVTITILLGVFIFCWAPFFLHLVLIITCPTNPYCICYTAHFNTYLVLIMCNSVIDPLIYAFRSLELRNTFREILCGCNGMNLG

[2] = molecular target: Melanocortin receptor 5 (Homo sapiens, UniProt P33032); assay: Displacement of [125I]-NAD-alpha-MSH from human recombinant MC3 receptor human MC5 expressed in BHK570 cells after 1 hr in presence of ovalbumin; format: cell-based
Chain of Melanocortin receptor 5 (P33032 whole entry): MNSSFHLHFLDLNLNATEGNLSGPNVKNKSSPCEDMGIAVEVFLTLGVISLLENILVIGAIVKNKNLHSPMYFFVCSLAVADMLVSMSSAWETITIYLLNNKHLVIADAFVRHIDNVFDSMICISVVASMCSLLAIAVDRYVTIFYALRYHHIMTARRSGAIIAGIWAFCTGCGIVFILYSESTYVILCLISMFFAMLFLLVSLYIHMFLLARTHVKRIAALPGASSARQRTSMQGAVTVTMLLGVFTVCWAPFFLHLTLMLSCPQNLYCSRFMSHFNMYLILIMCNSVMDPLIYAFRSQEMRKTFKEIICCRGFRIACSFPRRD

[3] = Solubility of the compound at pH 3 to 8; format: physicochemical; conditions: buffer
[4] = molecular target: T1, Melanocortin receptor 4 (Homo sapiens, UniProt P32245); assay: Agonist activity at human recombinant MC4 receptor expressed in BHK570 cells assessed as induction of […] accumulation in presence of 0.1% human serum albumin; format: functional, cell-based
T1 sequence (P32245 whole entry): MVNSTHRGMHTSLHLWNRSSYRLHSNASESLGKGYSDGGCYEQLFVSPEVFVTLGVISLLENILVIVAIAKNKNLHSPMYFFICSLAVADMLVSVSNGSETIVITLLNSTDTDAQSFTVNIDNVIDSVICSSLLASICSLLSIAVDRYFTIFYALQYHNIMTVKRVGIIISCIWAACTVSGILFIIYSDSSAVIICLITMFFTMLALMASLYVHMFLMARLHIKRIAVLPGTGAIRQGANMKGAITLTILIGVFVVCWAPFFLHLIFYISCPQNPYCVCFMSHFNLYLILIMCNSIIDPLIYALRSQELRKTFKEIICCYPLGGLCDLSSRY

[5] = system: Rattus norvegicus; assay: Antiobesity activity in Sprague-Dawley rat assessed as reduction of food intake at 3 mg/kg, sc qd measured up to 7 hrs relative to control; format: functional; set-up: scale not given: the % may be the effect or the level left; conditions: route subcutaneous
[6] = molecular target: T1, Melanocortin receptor 4; assay: Agonist activity at human recombinant MC4 receptor expressed in BHK570 cells assessed as induction of […] accumulation relative to alpha-MSH in presence of 0.1% human serum albumin; format: functional, cell-based
[7] = system: Rattus norvegicus; assay: Antiobesity activity in Sprague-Dawley rat assessed as reduction of food intake at 3 mg/kg, sc qd measured after 24 to 48 hrs relative to control; format: functional; conditions: route subcutaneous
[8] = system: Rattus norvegicus; assay: Antiobesity activity in Sprague-Dawley rat assessed as reduction of food intake at 3 mg/kg, sc qd measured after 7 to 24 hrs relative to control; format: functional; set-up: scale not given: the % may be the effect or the level left; conditions: route subcutaneous
[9] = molecular target: Melanocortin receptor 4 (Rattus norvegicus) (UniProt P70596); assay: Agonist activity at rat MC4 receptor; format: functional
Chain of Melanocortin receptor 4 (Rattus norvegicus) (P70596 whole entry): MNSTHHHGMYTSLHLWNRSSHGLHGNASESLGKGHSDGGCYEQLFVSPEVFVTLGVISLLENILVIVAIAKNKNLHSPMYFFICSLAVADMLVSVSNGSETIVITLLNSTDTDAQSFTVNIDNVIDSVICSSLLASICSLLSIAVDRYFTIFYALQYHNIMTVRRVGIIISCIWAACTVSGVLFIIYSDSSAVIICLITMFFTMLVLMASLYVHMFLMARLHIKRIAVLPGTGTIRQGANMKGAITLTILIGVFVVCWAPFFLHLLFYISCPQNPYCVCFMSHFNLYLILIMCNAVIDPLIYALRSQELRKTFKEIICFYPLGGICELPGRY

[10] = molecular target: T1, Melanocortin receptor 4; assay: Displacement of [125I]-NAD-alpha-MSH from MC4 receptor after 2 hrs by gamma counting in presence of ovalbumin
[11] = Dissociation constant, pKa of the compound; format: physicochemical
[12] = molecular target: Melanocyte-stimulating hormone receptor (Homo sapiens, UniProt Q01726); assay: Displacement of [125I]-NAD-alpha-MSH from human recombinant MC1 receptor expressed in BHK570 cells after 90 mins in presence of ovalbumin; format: cell-based
Chain of Melanocyte-stimulating hormone receptor (Q01726 whole entry): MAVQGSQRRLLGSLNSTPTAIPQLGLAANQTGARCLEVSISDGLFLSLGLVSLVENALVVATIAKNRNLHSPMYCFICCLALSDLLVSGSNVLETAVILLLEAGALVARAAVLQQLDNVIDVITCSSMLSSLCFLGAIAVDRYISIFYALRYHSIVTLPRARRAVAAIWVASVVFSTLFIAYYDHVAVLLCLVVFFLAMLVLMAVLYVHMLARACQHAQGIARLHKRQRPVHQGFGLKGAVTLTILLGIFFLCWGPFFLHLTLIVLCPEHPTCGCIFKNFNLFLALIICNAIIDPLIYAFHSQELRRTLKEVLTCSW

[13] = Half life in human; format: ADME, organism-based; conditions: in vivo

| Compound | Ki [1] [nM] | Ki [2] [nM] | solubility [3] | EC50 [4] [nM] | Activity [5] [%] | Emax [6] [%] | Food intake relative to control [7] [%] | Activity [8] [%] | Activity [9] | Ki [10] [nM] | pKa [11] | Ki [12] [nM] | half-life [13] [h] |
| --- | --- | --- | --- | --- | --- | --- | --- | --- | --- | --- | --- | --- | --- |
| CCCC[C@H](NC(=O)[C@H](CNC(=O)CN(CC(=O)O)CC(=O)O)NC(=O)[C@H](Cc1cnc[nH]1)NC(=O)[C@H](CCC(N)=O)NC(=O)[C@H](CO)NC(=O)CNC(=O)COCCOCCNC(=O)CCCCCCCCCCCCCCCc1nnn[nH]1)C(=O)N[C@H]1CCC(=O)NCCCC[C@@H](C(N)=O)NC(=O)[C@H](Cc2c[nH]c3ccccc23)NC(=O)[C@H](CCCN=C(N)N)NC(=O)[C@@H](Cc2ccccc2)NC(=O)[C@@H]2C[C@@H](O)CN2C1=O | 71 | 13 | soluble | 88 | – | – | – | – | – | – | – | – | – |
| CCCC[C@H](NC(=O)[C@H](CCC(=O)O)NC(=O)[C@H](CCCNC(=N)N)NC(=O)[C@H](CCC(=O)O)NC(=O)[C@H](CCC(=O)O)NC(=O)CNC(=O)COCCOCCNC(=O)CCCCCCCCCCCCCCCc1nnn[nH]1)C(=O)N[C@H]1CCC(=O)NCCCC[C@@H](C(N)=O)NC(=O)[C@H](Cc2c[nH]c3ccccc23)NC(=O)[C@H](CCCNC(=N)N)NC(=O)[C@@H](Cc2ccccc2)NC(=O)[C@@H]2C[C@@H](O)CN2C1=O | – | – | – | – | 74 | 77 | 98 | 90 | – | – | – | – | – |
| CCCC[C@H](NC(=O)[C@H](CNC(=O)CN(CC(=O)O)CC(=O)O)NC(=O)[C@H](Cc1cnc[nH]1)NC(=O)[C@H](CCC(N)=O)NC(=O)[C@H](CO)NC(=O)CNC(=O)COCCOCCNC(=O)CCCCCCCCCCCCCCCc1nnn[nH]1)C(=O)N[C@H]1CCC(=O)NCCCC[C@@H](C(N)=O)NC(=O)[C@H](Cc2c[nH]c3ccccc23)NC(=O)[C@H](CCCNC(=N)N)NC(=O)[C@@H](Cc2ccccc2)NC(=O)[C@@H]2C[C@@H](O)CN2C1=O | – | – | – | – | 53 | 85 | 66 | 39 | Active | – | – | – | – |
| CCCC[C@H](NC(=O)[C@@H](N)CNC(=O)[C@H](Cc1cnc[nH]1)NC(=O)[C@H](CCC(N)=O)NC(=O)[C@H](CO)NC(=O)CNC(=O)COCCOCCNC(=O)CCCCCCCCCCCCCCCc1nnn[nH]1)C(=O)N[C@H]1CCC(=O)NCCCC[C@@H](C(N)=O)NC(=O)[C@H](Cc2c[nH]c3ccccc23)NC(=O)[C@H](CCCNC(=N)N)NC(=O)[C@@H](Cc2ccccc2)NC(=O)[C@@H]2C[C@@H](O)CN2C1=O | – | – | – | – | 82 | – | 81 | 54 | Active | – | – | – | – |
| CCCCCCCCCCCCCCCC(=O)NS(=O)(=O)CCCC(=O)NCC(=O)N[C@@H](CO)C(=O)N[C@@H](CCC(N)=O)C(=O)N[C@@H](Cc1cnc[nH]1)C(=O)N[C@@H](CO)C(=O)N[C@@H](CCCC)C(=O)N[C@H]1CCC(=O)NCCCC[C@@H](C(N)=O)NC(=O)[C@H](Cc2c[nH]c3ccccc23)NC(=O)[C@H](CCCNC(=N)N)NC(=O)[C@@H](Cc2ccccc2)NC(=O)[C@@H]2C[C@@H](O)CN2C1=O | 8.2 | 1.2 | – | 0.15 | 40 | – | 58 | 36 | – | 0.11 | 2 | 230 | – |
| CCCC[C@H](NC(C)=O)C(=O)N[C@H]1CC(=O)NCCCC[C@@H](C(=O)O)NC(=O)[C@H](Cc2c[nH]c3ccccc23)NC(=O)[C@H](CCCNC(=N)N)NC(=O)[C@@H](Cc2ccccc2)NC(=O)[C@H](Cc2c[nH]cn2)NC1=O [BREMELANOTIDE] | – | – | – | – | 23 | – | 100 | 91 | – | – | – | 6.4 | 2 |
